Source: US12617770B2, “IRAK inhibitor and preparation method therefor and use thereof” (WUHAN CREATERNA SCIENCE AND TECHNOLOGY CO., LTD., priority 2019, dated 2026)

Key:
CYP3A4 [1] = biological target: T1, CYP3A4 (Homo sapiens, UniProt P08684); assay: CYP450 inhibition in human liver microsomes, CYP3A4-M; type: in vitro ADME; settings: human, microsomes
T1 construct: The test compounds were co-incubated with the human liver microsomes and a probe substrate midazolam (CYP3A4); tissue Corning (USA); host or cells: mixed (pooled) human liver microsomes
Protocol: (§1) This study was intended to investigate the inhibitory effect of the test compounds on 5 major enzymes in human P450 superfamily, CYP1A2, 2C9, 2C19, 2D6 and 3A4-M. The mixed human liver microsomes used in this assay were purchased from Corning (USA). The test compound (compound 14) was co-incubated at 7 concentrations with human liver microsomes and five probe substrates (phenacetin for CYP1a2, diclofenac for CYP2C9, mephenytoin for CYP2C19, dextromethorphan for CYP2D6, midazolam for CYP3A4-M, mixed). The reaction was initiated by adding coenzyme NADPH, and terminated by adding acetonitrile containing internal standard. After the proteins were precipitated, the supernatant was centrifuged. The characteristic metabolites in the supernatant (acetaminophen for CYP1A2, 4-hydroxydiclofenac for CYP2C9, 4-hydroxymephenytoin for CYP2C19, dextrorphan for CYP2D6, 1-hydroxymidazolam for CYP3A4-M) were analyzed by LC-MS/MS. The influence of the test compounds on production of the characteristic metabolites was finally analyzed on the basis of the data obtained. A selective inhibitor (ketoconazole for CYP3A4-M) may be used as positive control. All samples were tested in duplicate.

[2] = Plasma protein binding (PPB), equilibrium dialysis, rat plasma; type: in vitro ADME; settings: 5 h at 37° C., read-out: Plasma protein binding (Bound %) Rat (converted)
Protocol: (§2) The experiment is intended to determine plasma protein binding (PPB) data of the test compounds disclosed herein.
(§3) In the PPB experiment, the final administration matrix contained the test compound or a reference compound with a concentration of 1 μM and DMSO with a content of 0.2%.
(§4) Collecting samples in initial time: 25 μL of the matrix containing the compound was added into a blank 96-well collecting plate, and the plate was stored at −20° C.
(§5) An equilibrated dialysis device was prepared. 100 μL of buffer was added to the receiving side of the equilibrium dialysis plate. Then 100 μL of the administration matrix containing the compound or the reference compound was added into an administration side of the equilibrium dialysis plate. The prepared equilibrium dialysis plate was placed in a 37° C. shaker to be shaken for 5 h at 60 rpm.
(§6) Sample was prepared at the end of cultivation (5 h): Preparing sample in the receiving side: 25 μL of sample from a receiving side was taken out and placed in a 96-well sample collecting plate, and 25 μL of a corresponding matrix (blank plasma) was added for mixing: 200 μL of ACN containing an internal standard was added, shaken for 10 minutes at 600 rpm, and centrifuged at 5594 g for 15 min.
(§7) Preparing sample in the administration side: 25 μL of the sample containing test compound and reference compound from the administration side was taken out and 25 μL of a blank buffer was added for mixing; 200 μL of ACN containing an internal standard was added, shaken for 10 minutes at 600 rpm, and centrifuged at 5594 g for 15 min.
(§8) Preparing sample in initial time: the sample containing test compound and reference compound was re-melted at 37° C. in initial time and then mixed with the corresponding matrix (blank buffer) in the same volume (25 μL); 200 μL of ACN containing an internal standard was added, shaken for 10 minutes at 600 rpm, and centrifuged at 5594 g for 15 min.
(§9) After all the samples were centrifuged, 50 μL of a supernatant was taken and added into 50 μL of ultrapure water for mixing, and the samples were sent to liquid chromatography-mass spectrometry.

[3] = Plasma protein binding (PPB), equilibrium dialysis, mouse plasma; type: in vitro ADME; settings: 5 h at 37° C., read-out: Plasma protein binding (Bound %) Mouse (converted)
Protocol: as §2, §3, §4, §5, §6, §7, §8, §9

CYP2D6 = biological target: T2, CYP2D6 (Homo sapiens, UniProt P10635); assay: CYP450 inhibition in human liver microsomes, CYP2D6; type: in vitro ADME; settings: human, microsomes
T2 construct: co-incubated at 7 concentrations with human liver microsomes and five probe substrates; tissue Corning (USA); host or cells: mixed (pooled) human liver microsomes
Protocol: as §1

[4] = Plasma protein binding (PPB), equilibrium dialysis, human plasma; type: in vitro ADME; settings: 5 h at 37° C., read-out: Plasma protein binding (Bound %) Human (converted)
Protocol: as §2, §3, §4, §5, §6, §7, §8, §9

[5] = Pharmacokinetic study, single oral gavage dosing; type: in vivo; settings: mouse, 40 mg/kg, 40 mpk, 15% solutol HS15 + 85% PBS, ICR mice, plasma
human IRAK4 = biological target: T3, human IRAK4 (Homo sapiens, UniProt Q9NWZ3); assay: IRAK4 MSA (Mobility-Shift Assay) at Km concentration of ATP; type: biochemical; settings: GST-IRAK4 1 nM, ATP 37 μM (Km); read-out: IC50 for inhibiting human IRAK4 activity
T3 construct: purchased Cama (so in the source)
T3 sequence (Q9NWZ3 1-460): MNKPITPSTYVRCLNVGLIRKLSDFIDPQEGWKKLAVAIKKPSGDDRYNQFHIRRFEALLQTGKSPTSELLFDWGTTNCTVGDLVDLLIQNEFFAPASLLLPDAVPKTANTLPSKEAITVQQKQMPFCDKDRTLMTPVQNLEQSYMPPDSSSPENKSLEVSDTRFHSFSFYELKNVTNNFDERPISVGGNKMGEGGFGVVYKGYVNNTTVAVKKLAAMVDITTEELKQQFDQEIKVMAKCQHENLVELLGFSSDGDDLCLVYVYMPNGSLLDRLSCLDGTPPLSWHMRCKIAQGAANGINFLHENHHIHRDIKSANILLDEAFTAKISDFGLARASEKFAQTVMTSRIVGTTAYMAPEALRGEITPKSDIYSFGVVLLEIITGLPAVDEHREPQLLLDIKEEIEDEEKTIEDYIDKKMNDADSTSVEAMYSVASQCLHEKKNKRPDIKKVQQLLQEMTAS
Protocol: A recombinant fusion protein of N-terminal GST (glutathione-S-transferase) and human IRAK4 was used as enzyme (GST-IRAK4, kinase IRAK4 (Cama, CAT No. 09-145)) at a final concentration of 1 nM; ATP (Sigma. CAT No. A7699-1G) was at a final concentration of 37 μM; • the substrates used for the kinase reaction were 5-FAM (5-carboxyfluorescein)-labeled polypeptide (5-FAM-[…]-COOH) and substrate peptide FAM-P8 (GL Biochem, CAT No. 112396) at final concentrations of 5 μM.
In this assay, 500 μM stock solutions of the compounds were prepared in 100% DMSO, and serially 4-fold diluted to the 10th concentration gradient with 100% DMSO, followed by a 10-fold dilution in the compound buffer (50 mM HEPES, pH 7.5, 0.00015% Brij-35) to give intermediate dilutions of the compounds at a final concentration of 10 μM−0.04 nM containing 10% DMSO. 5 μL of the intermediate dilution was transferred into a black 384-well plate.
IRAK4 was diluted to 2.5 nM in the kinase buffer (50 mM HEPES, pH 7.5, 0.00015% Brij-35, 2 mM DTT). 10 μL of the IRAK4 dilution was transferred to the 384-well plate and co-incubated with the compound for 10-15 min.
The substrate and ATP were diluted to 12.5 μM and 92.5 μM with reaction buffer (50 mM HEPES, pH 7.5, 0.00015% Brij-35, 10 mM MgCl2), respectively. 10 μL of the dilution was transferred to a 384-well plate and incubated at 28° C. for 1 h. The reaction was terminated by adding 25 μL of 50 mM EDTA to the 384-well plate.
The inhibition rate of IRAK4 by the compounds was calculated by measuring the rate of phosphorylated substrate using a Caliper EZ Reader (PerkinElmer) and the IC50 was calculated by XL-fit software. […] In particular, some exemplary compound activity values are as follows: […]

TNF-α release = assay: Inhibition of cytokine TNF-α release in LPS-induced Balb/c female mice; type: in vivo; settings: oral gavage 16 h before LPS (i.p. 0.2 mg/kg); serum 1.5 h after stimulation
Protocol: Female Balb/c mice were randomized into groups, each containing 4 mice, including a control+vehicle group, a model+vehicle group, a model+reference group and model+compound groups. The control animals received an intraperitoneal injection of normal saline (10 mL/kg) and the model animals received LPS stimulation (Sigma CAT #L2630, i.p., 10 mL/kg, 0.2 mg/kg). To the test compounds, DMSO, Solutol and 10 mM PBS were sequentially added to prepare a solution or suspension of required concentration for administration. For the vehicle, DMSO, Solutol and 10 mM PBS were mixed in a volume ratio of 5:15:80. The animals were administered through oral gavage (10 mL/kg) 16 h before LPS (or saline) stimulation at predetermined doses, and euthanized with CO2 at 1.5 h after the stimulation for cardiac blood collection. The whole blood was not anticoagulated, incubated in wet ice for 1.5 h, and centrifuged at 2000×g at 4° C. for 10 min to separate the serum. Serum was frozen at −80° C. for TNF-α assay. Quantification of TNF-α was done by TNF-α ELISA kit according to the manufacturer's instructions. The readings of absorbance at A450 were measured with a microplate reader SpectraMax i3x (Molecular Device) for calculating the inhibition of the compounds, and IC50 was calculated with GraphPad Prism 7.0 software. […] In particular, some exemplary compound inhibition rate values are as follows: […]

CYP3A4 [6] = biological target: T1, CYP3A4; assay: Time-dependent inhibition (TDI) of CYP3A4 in human liver microsomes; type: in vitro ADME; settings: probe substrate midazolam
Protocol: This study was intended to investigate the time-dependent inhibition effect of the compounds on CYP3A4 in human P450 superfamily. The mixed human liver microsomes used in this assay were purchased from Corning (USA).
The test compounds were co-incubated with the human liver microsomes and a probe substrate midazolam (CYP3A4), and the concentration of the test compounds was set at 30 μM. The reaction was initiated by adding coenzyme NADPH, and terminated by adding acetonitrile dossolved with internal standard in advance. After the proteins were precipitated, the supernatant was centrifuged. The characteristic metabolite 1-hydroxy-midazolam (CYP3A4) in the supernatant was analyzed by LC-MS/MS. The influence of the test compounds on production of the characteristic metabolites was finally analyzed on the basis of the data obtained. A selective inhibitor (verapamil for CYP3A4-M) was used as positive control.

T1 sequence (P08684 whole entry): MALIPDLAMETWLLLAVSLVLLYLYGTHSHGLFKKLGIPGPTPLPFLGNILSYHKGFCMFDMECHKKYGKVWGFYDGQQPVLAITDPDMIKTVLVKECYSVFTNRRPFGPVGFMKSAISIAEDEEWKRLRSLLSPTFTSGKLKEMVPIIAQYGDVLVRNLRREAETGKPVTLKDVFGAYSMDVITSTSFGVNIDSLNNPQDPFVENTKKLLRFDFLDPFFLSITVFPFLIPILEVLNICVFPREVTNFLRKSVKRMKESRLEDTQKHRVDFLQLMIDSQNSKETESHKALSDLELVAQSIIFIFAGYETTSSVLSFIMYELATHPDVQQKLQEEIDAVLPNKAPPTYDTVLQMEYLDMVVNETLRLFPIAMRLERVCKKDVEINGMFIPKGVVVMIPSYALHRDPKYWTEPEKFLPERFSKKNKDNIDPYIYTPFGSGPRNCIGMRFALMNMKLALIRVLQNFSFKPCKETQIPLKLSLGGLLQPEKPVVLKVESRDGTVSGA
T2 sequence (P10635 whole entry): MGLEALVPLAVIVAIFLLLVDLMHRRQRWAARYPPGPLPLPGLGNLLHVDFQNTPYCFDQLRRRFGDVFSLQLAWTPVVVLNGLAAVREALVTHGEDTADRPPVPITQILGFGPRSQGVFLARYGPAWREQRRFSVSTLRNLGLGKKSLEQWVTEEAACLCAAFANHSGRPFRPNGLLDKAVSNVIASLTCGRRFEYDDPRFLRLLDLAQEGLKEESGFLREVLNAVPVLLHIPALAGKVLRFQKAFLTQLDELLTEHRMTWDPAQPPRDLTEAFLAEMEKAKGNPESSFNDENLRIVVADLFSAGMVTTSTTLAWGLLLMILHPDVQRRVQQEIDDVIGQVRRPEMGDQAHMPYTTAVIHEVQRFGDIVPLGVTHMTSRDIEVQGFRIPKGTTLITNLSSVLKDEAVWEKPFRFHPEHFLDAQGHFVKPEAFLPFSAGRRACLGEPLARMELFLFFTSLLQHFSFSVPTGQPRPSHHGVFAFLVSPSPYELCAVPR

Compound	IC50 (CYP3A4 [1])	fraction unbound at 5 h, 1 μM [2]	fraction unbound at 5 h, 1 μM [3]	IC50 (CYP2D6)	fraction unbound at 5 h, 1 μM [4]	AUC(0-t) ([5]; read-out: Area under curve AUC0-t)	AUC(0-inf) ([5]; read-out: Area under curve AUC0-∞)	MRT ([5]; read-out: Average retention time MRT)	half-life ([5]; read-out: Half life t1/2 (converted))	Cmax ([5]; read-out: Peak concentration Cmax)	Tmax ([5]; read-out: Time to peak tmax)	IC50 (human IRAK4)	Inhibition rate (%) of TNF-α (TNF-α release)	TDI (3A4, 30 μM) (CYP3A4 [6])
CC(C)(O)CCn1cc2cc(NC(=O)c3cccc(C(F)(F)F)n3)c(C(C)(C)O)cc2n1 [A, reference compound]	> 30000 nM	0.13	0.148	> 30000 nM	0.0098									
COc1cc2nn([C@H]3CC[C@H](O)CC3)cc2cc1NC(=O)c1cccc(C)[n+]1[O-] [Compound 013, 2-((2-((1r,4r)-4-hydroxycyclohexyl)-6-methoxy-2H-indazol-5-yl)carbamoyl)-6-methylpyridine 1-oxide]		0.183	0.238		0.191	160 µg·h/mL	182 µg·h/mL	10.4 h	7.23 h	18900 ng/mL	1 h	7.6 nM	76.29%	
COc1cc2nn([C@H]3CC[C@H](O)CC3)cc2cc1NC(=O)c1cccc(C2CC2)[n+]1[O-] [Compound 014, 2-cyclopropyl-6-((2-((1r,4r)-4-hydroxycyclohexyl)-6-methoxy-2H-indazol-5-yl)carbamoyl)pyridine 1-oxide]														+3.85%
CCOc1cc2nn([C@H]3CC[C@H](O)CC3)cc2cc1NC(=O)c1cccc(C)[n+]1[O-] [Compound 016, 2-((6-ethoxy-2-((1r,4r)-4-hydroxycyclohexyl)-2H-indazol-5-yl)carbamoyl)-6-methylpyridine 1-oxide]		0.099	0.123		0.131							8.1 nM	78.71%	
